Experimental data: patent US10815206B2, “RIP1 inhibitory compounds and methods for making and using the same” (priority 2018, dated 2020)
Where two headings read alike, the source gives them in different places.

Tests used:
[1] = test system: TNF-alpha induced hypothermia; test: Acute hypothermia mouse model (TNF-alpha/zVAD-FMK induced hypothermia); format: in vivo; conditions: mice, oral gavage
Description: In this example, an acute hypothermia mouse model assay was used to evaluate the ability of compounds disclosed herein to inhibit TNF-alpha induced hypothermia.
Female C57BL/6 mice are randomly grouped and weighed on Day −1. On the day of the study (Day 0), mice are administered vehicle or test article by oral gavage. Fifteen minutes after oral administration of test agents, each mouse is administered an intraperitoneal (IP) injection of solution containing recombinant human tumor necrosis factor alpha (TNF-α, 25.0 μg) and zVAD-FMK (200 μg). Body temperature is measured at 0 hours (before IP injections) and every hour via rectal probe temperature measuring device. Three (3) hours after IP injections of TNF-α and zVAD/FMK, mice are euthanized by CO2 asphyxiation and blood is collected via cardiac puncture. Serum and plasma are harvested for determination of cytokine and compound levels, respectively. Separate groups of mice (satellite mice) are included for the determination of compound levels in plasma at the time of administration of TNFa/zVAD-FMK.
(S)-5-benzyl-N-(5-methyl-4-oxo-2,3,4,5-tetrahydrobenzo[b][1,4]oxazepin-3-yl)-4H-1,2,4-triazole-3-carboxamide (WO 2014/125444), having a structure as illustrated below, was used as a comparative compound and was examined using a similar protocol as described by WO 2014/125444.

[2] = test system: TNF-alpha induced hypothermia; conditions: dose of 30 mg/kg, according to WO 2014/125444; cited from earlier work

SMILES | inhibition of TNF-alpha induced hypothermia ([1]; 30 mg/kg, in the inventors hands) [%] | inhibition of TNF-alpha induced hypothermia [2] [%] | inhibition of TNF-alpha induced hypothermia ([1]; dose of 5 mg/kg)
CN1C(=O)[C@@H](NC(=O)c2nnc(Cc3ccccc3)[nH]2)COc2ccccc21 [comparative compound, (S)-5-benzyl-N-(5-methyl-4-oxo-2,3,4,5-tetrahydrobenzo[b][1,4]oxazepin-3-yl)-4H-1,2,4-triazole-3-carboxamide] | 70 | 93 | 
CN1C(=O)[C@@H](NC(=O)c2n[nH]c(Cc3ccccc3)n2)COc2ccc(C#CC(C)(C)O)cc21 [Compound I-30, (S)-5-benzyl-N-(7-(3-hydroxy-3-methylbut-1-yn-1l-yl)-5-methyl-4-oxo-2,3,4,5-tetrahydrobenzo[b][1,4]oxazepin-3-yl)-1H-1,2,4-triazole-3-carboxamide] |  |  | greater than 85%
